Data from patent US5545639A, “Method of inhibiting transformed cells” (The United States of America as represented by the …, priority 1994, dated 1996).
Like-named read-outs stand apart in the source and are kept apart here.

What was measured:
L1210 mouse cells = assay: Example 3: growth of L1210 mouse cells with bis(halomethyl)phenanthrolines plus copper, with or without BCS; format: cell-based; conditions: copper 10 μM, BCS 100 μM
Procedure: Bis(halomethyl)phenanthroline compounds were synthesized according to the method of Newkome et al., J. Org. Chem., 48, 5112-5114 (1983). Such compounds, namely, 2,9-bis(bromomethyl)phenanthroline and 2,9-bis(chloromethyl)phenanthroline, were added in the presence of copper, but with or without BCS (the copper chelator shown in Examples 1 and 2 to reduce inhibitory activity), to the culture media of L1210 mouse cells, using the same methods of Examples 1 and 2. The concentrations of copper and BCS used in these experiments were 10 μM and 100 μM, respectively. The growth of the cells as a percent of control were determined, and the results plotted in the graph of FIG. 3, wherein open squares (.quadrature.) represent the compound plus copper chelate and solid squares (.box-solid.) represent the compound together with both copper and BCS addition to the culture medium.

[1] = system: mouse L1210 leukemia cells; assay: Example 1: growth of mouse L1210 leukemia cells with 2,9-DMP, with/without copper and BCS; format: cell-based; conditions: for activity at 0.4 µM: at concentrations above about 0.4 μM
Procedure: The phenanthroline derivative 2,9-DMP was added to a culture of mouse L1210 leukemia cells alone (.smallcircle.), with copper sulfate (.circle-solid.), and with copper sulfate and bathocuproine sulfonate (.quadrature.). The concentrations of copper sulfate and bathocuproine sulfonate used in these experiments were both 25 μM. Methods used to grow the cells and to administer the test compounds were standard methods, well known to ordinary practitioners. The growth of the cells as a percent of control was determined, and the results were plotted in the graph of FIG. 1.

[2] = system: P388 murine lymphocytic leukemia cells; conditions: mice inoculated with P388 cells; 2,9-DMP treatment with copper; cited from earlier work
L1210 cells = conditions: 2,9-DMP with copper; cited from earlier work
mouse L1210 cells = conditions: coordinated copper complex, tissue culture; cited from earlier work
[3] = system: mouse L1210 leukemia cells; assay: Example 2: growth of mouse L1210 leukemia cells with monohalomethyl phenanthrolines, with/without copper and BCS; format: cell-based
Procedure: The aforementioned monohalomethyl compounds were prepared and characterized as described by Newkome et al., J. Org. Chem., 54, 1766-1769 (1989). The compounds were then added to different cultures of mouse L1210 leukemia cells alone (.smallcircle.), with copper sulfate (.quadrature.), with BCS (.circle-solid.), or with BCS and copper sulfate (.box-solid.). The concentrations of copper and BCS used in these experiments were 10 μM and 100 μM, respectively. Methods used to grow the cells and to administer the test compounds were standard methods, well known to ordinary practitioners, and were similar to those used in Example 1. The growth of the cells as a percent of controls were determined, and the results were plotted in the graph of FIG. 2.

In the case of `BrCc1ccc2ccc3ccc(CBr)nc3c2n1` [2,9-bis(bromomethyl)-1,10-phenanthroline], the “difference in inhibitory effect, presence vs absence of available copper (BCS)” value (L1210 mouse cells) is reported as “about 10%”.
For `Cc1ccc2ccc3ccc(C)nc3c2n1` [2,9-DMP, 2,9-dimethyl-1,10-phenanthroline], the activity at 0.4 µM ([1]; Mus musculus, L1210, 2,9-DMP alone, read-out: cell growth as percent of control) was < 20%, the activity at 0.1 µM ([1]; Mus musculus, L1210, with copper ion (copper sulfate 25 μM), at concentrations above about 0.1 μM, read-out: cell growth as percent of control) was < 20% and the activity at 0.4 µM ([1]; Mus musculus, L1210, with copper ion (copper sulfate 25 μM), read-out: cell growth as percent of control) was < 10%. The “concentration inhibiting to the same level (20% of control) relative to copper-chelated monobrominated phenanthroline” value ([1]; copper chelated) was “less than one-tenth of that concentration”, the “increase in life span” value [2] was 45% and the “inhibitory response of L1210 tumor in implanted animals” value (L1210 cells) was “evident, although weak”. The “concentration effective for killing of L1210 cells” value (mouse L1210 cells) was “nanomolar concentrations”.
In the case of `Cc1ccc2ccc3ccc(CBr)nc3c2n1` [2-BM-9-MP, 2-bromomethyl-9-methyl-1,10-phenanthroline], the “inhibitory activity compared with unhalogenated parent compound of Example 1” value [3] is reported as “less than that of the unhalogenated parent compound”.
In the case of `Cc1ccc2ccc3ccc(CCl)nc3c2n1` [2-CM-9-MP, 2-chloromethyl-9-methyl-1,10-phenanthroline], the “inhibitory activity compared with unhalogenated parent compound of Example 1” value [3] is reported as “less than that of the unhalogenated parent compound”.
